{"source": "paper PMC10973839", "about": "“CHF6297: a novel potent and selective p38 MAPK inhibitor with robust anti-inflammatory activity and suitable for inhaled pulmonary administration as dry powder” (Frontiers in Pharmacology, 2024)", "key": {"[1]": {"tested_on": "TS-induced neutrophil influx in BALF", "test": "BALF neutrophilia induced by tobacco smoke exposure in mice", "format": "in vivo, C57BL6J female mice", "settings": "for neutrophils in BALF: 4 days TS exposure", "description": "C57BL6J female mice aged 9–10 weeks (Harlan Laboratories S.r.l) in groups of 8 were exposed, via whole-body inhalation, twice daily 1 h apart, for 4 consecutive days, to the tobacco smoke (TS) (generated using “Marlboro Gold: 9 mg of tar and 0.7 mg nicotine”) of two cigarettes/exposure on days 1 and 2, three cigarettes/exposure on day 3, and four cigarettes/exposure on the last exposure day in clear polycarbonate chambers (27 cm × 16 cm × 12 cm). The smoke was introduced into the exposure chambers (21100-790 Ugo Basile, Biological Research Instruments, Comerio, Varese, Italy), with the airflow generated by using a mechanical ventilator (7025 Rodent Ventilator, Ugo Basile). Each exposure chamber was connected to a different ventilator set at a rate of 100 mL/min (frequency: 50 strokes/min; volume: 2 mL/stroke). At regular intervals (after burning two cigarettes), the exposure chambers were opened and aired. Sham and control mice were exposed to air only in the same manner for the same duration of time.\nCHF6297 (0.03 and 0.3 mg/kg) and budesonide (0.3 mg/kg), our reference compound and vehicle (0.2% Tween 80 in saline), respectively, were administered intranasally in a volume of 30 µL, 1 h before and 5 h after TS exposure under light isoflurane anesthesia.\nA BAL was performed using a volume of 0.6 mL of phosphate-buffered saline that was gently instilled and withdrawn three times using a 12-mL syringe. BALF cells were separated by centrifugation (10 min at 3,070 g), and the supernatant was removed. The resulting cell pellet was resuspended in a known volume of PBS, and the total cell numbers were calculated by counting a stained (Turk’s stain) aliquot under a microscope using a hemacytometer. The cell pellet was resuspended to approximately 10^5 cells per ml, and cytospin slides were prepared by centrifugation (8 min at 72.26 g; Shandon Cytospin; Thermo Shandon Ltd., Runcorn, Cheshire, United Kingdom). The slides were air-dried and stained using Wright–Giemsa stain, following the manufacturer’s instructions. A differential cell count was performed using light microscopy. Approximately 400 cells were counted from each slide. The cells were identified using standard morphometric techniques."}, "[2]": {"molecular_target": "T1, human p38β (Homo sapiens, UniProt Q15759)", "T1 construct": "purchased DiscoverX", "T1 sequence (Q15759 whole entry, canonical isoform)": "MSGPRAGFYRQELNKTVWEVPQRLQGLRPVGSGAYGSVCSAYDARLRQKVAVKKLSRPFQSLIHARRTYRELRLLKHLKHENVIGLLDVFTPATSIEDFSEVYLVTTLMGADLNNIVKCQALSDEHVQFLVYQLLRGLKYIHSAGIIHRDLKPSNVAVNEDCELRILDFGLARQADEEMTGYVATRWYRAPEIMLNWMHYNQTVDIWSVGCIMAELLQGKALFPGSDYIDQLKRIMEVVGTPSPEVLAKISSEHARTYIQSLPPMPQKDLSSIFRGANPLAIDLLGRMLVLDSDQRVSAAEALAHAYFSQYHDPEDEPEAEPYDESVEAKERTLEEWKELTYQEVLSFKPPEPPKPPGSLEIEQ", "test": "KINOMEscan competition binding assay (DiscoverX), p38β", "settings": "read-out: Kd (mean ± s.d.)", "from_the_text": "The KINOMEscan® platform (DiscoverX) was used, which uses a novel and proprietary active site-directed competition binding assay to quantitatively measure the interactions between human p38 isoforms and the target compound."}}, "data": [{"smiles": "C[C@H]1CCCCN1c1nnc2ccc(O[C@@H]3CC[C@H](NC(=O)Nc4cc(C(C)(C)C)nn4-c4cnn(CCN(C)C)c4)c4ccccc43)cn12", "note": "[CHF6297]", "values": [{"measurement": "% of inhibition of neutrophil recruitment", "setting": "[1]; 0.03 mg/kg i.n., 1 h before and 5 h after TS", "result": "29.7 ± 15.3", "unit": "%"}, {"measurement": "neutrophils in BALF", "setting": "[1]; 0.03 mg/kg i.n.", "result": "0.4 ± 0.1 × 10^5 cells/mL"}, {"measurement": "% inhibition of neutrophilia", "setting": "[1]; 0.3 mg/kg i.n., 1 h before and 5 h after TS", "result": "62.0 ± 8.4", "unit": "%"}, {"measurement": "neutrophils in BALF", "setting": "[1]; 0.3 mg/kg i.n.", "result": "0.2 ± 0.1 × 10^5 cells/mL"}, {"measurement": "Kd", "setting": "[2]", "result": "1.11 ± 0.6", "unit": "nM"}]}]}
